Like-named read-outs stand apart in the source and are kept apart here. One block for each molecule: values may come before it.
How the values were obtained:
[1] = system: RAW 264.7 cells; test: Cytotoxicity on RAW 264.7 cells (CCK-8 method); format: cell-based, mouse
[2] = Cytotoxicity on RAW 264.7 cells (CCK-8 method); format: cell-based, mouse; settings: mouse, RAW 264.7 cells; drug concentration required to cause median cytotoxicity, RAW 264.7
[3] = Rat pharmacokinetic test; format: in vivo; settings: for Vd: read-out: Vss; for bioavailability: oral, gavage 20 mg/kg vs intravenous 10 mg/kg, dosage standardized, read-out: F (absolute bioavailability)
Protocol: Six male healthy rats weighing 150-200 g were randomly divided into 2 groups (n=3). Compounds 14, 16, 17, 18, 22 and 29 of the present invention were administered by gavage and intravenous injection, respectively, at a administration volume of 10 mL/kg. The drug was formulated with DMSO/Tween 80/saline solution (5:5:90, v/v/v). The rats were fasted for 12 h before testing, water ad lib, and uniformly feeded 2 h after administration.
gavage administration: 0.25, 0.5, 1.0, 2.0, 4.0, 6.0, 8.0 and 24 h after administration:
intravenous administration: 5 min, 0.25, 0.5, 1.0, 2.0, 4.0, 6.0, 8.0 and 24 h after administration;
0.3 mL of venous blood was collected at the above time points via the rat eye vein venous plexus, placed in heparinized test tube, centrifuged at 11000 rpm for 5 min. Plasma was separated and frozed in a −20° C. refrigerator.
The concentration of compounds in rat plasma was determined by LC/MS/MS. The pharmacokinetic parameters after administration were calculated by a non-compartmental model of DAS 3.0 software.

[4] = Beagle dog pharmacokinetic test; format: in vivo
Protocol: Six male healthy beagle dogs weighing 9-11 kg were randomly divided into 2 groups (n=3). The compound (S)-C8 of the present invention was administered by gavage administration and intravenous injection, respectively, and the administration volume was 5 mL/kg and 1 mL/kg, respectively. The gavage administration was formulated with 0.5% CMC-Na+0.25% Tween 80, and intravenous administration was formulated with 5% DMSO/40% PEG400/55% saline.
• gavage administration: 0.25, 0.5, 1.0, 2.0, 4.0, 6.0, 8.0 and 24 h after administration; • intravenous administration: 5 min, 0.25, 0.5, 1.0, 2.0, 4.0, 6.0, 8.0 and 24 h after administration; • 1 ml of venous blood was taken at the above time points from the veins of the extremities, placed in an EDTA-2K anticoagulation tube, and centrifuged at 3500 rpm for 10 minutes. Plasma was separated, and frozen in a −20° C. refrigerator. 3. Sample Testing and Data Analysis
The concentration of compound (S)-C8 in Beagle dog plasma was determined by LC/MS/MS.
The pharmacokinetic parameters after administration were calculated by a non-compartmental model of Phoenix 1.3 software (Pharsight, USA).

[5] = biological target: Human PDE4D catalytic domain (Homo sapiens (Human), UniProt Q08499); test: Scintillation Proximity Assay (SPA), inhibition of PDE4D catalytic domain activity; format: biochemical
Human PDE4D catalytic domain, sequence (Q08499 386-715): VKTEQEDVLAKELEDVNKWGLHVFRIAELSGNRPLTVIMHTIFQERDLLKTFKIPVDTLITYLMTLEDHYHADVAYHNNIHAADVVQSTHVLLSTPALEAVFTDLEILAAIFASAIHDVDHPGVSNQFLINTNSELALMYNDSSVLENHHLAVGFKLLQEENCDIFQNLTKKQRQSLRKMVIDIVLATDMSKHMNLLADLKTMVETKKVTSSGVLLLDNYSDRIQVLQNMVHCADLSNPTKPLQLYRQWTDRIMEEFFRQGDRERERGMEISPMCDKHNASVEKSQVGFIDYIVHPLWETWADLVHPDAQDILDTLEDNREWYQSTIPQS
Protocol: The scintillation Proximity Assay (SPA) method was used to determine the inhibitory effect of compounds on the activity of PDE4D catalytic domain. Human PDE4D catalytic domain protein was obtained by expression and purification in E. coli. […] [^3H]-cAMP, scintillation beads (RPNQO150, Perkin Elmer), and 96-well scintillation microplates (Isoplate-96, Perkin Elmer) were purchased from Perkin Elmer Company.
Finally, 10 μl [^3H]-cAMP (0.005 μCi/μl) was added and incubated for 30 min at 30° C. in a water bath. 50 μl SPA beads was added to quench the reaction, shaked appropriately, and stood for 20 minutes. A microplate scintillation counter was used.

[6] = system: acute inflammation model of mouse back air sac; test: Acute inflammation model of mouse back air sac (carrageenan); format: in vivo; settings: oral gavage 5 mg/kg
Protocol: On the first day of the experiment, mice were subcutaneously injected with 3 ml of air on the back, and subcutaneously injected with 1.5 ml of air on the back on day 3, and subcutaneously injected with 1 ml of 2% carrageenan (Sigma-Aldrich, St. Louis, MO, USA) on the back on day 6 for sensitization. 4 hours after sensitization, secretion in the air sac was lavaged with phosphate buffer solution. The lavage fluid was used for white blood cell count and inflammatory factor detection. […] Tumor necrosis factor-α and interleukin-6 detection kits were purchased from BD Pharmingen (San Diego, CA, USA).

[7] = system: tumor necrosis factor-α secretion in RAW 264.7 cells; test: Inhibition of LPS-stimulated tumor necrosis factor-α secretion in RAW 264.7 cells (ELISA); format: cell-based, mouse
[8] = system: TNF-α secretion in PBMC; test: Inhibition of LPS-stimulated TNF-α secretion in PBMC (ELISA); format: cell-based; settings: Homo sapiens, TNF-α secretion in PBMC
Description: According to the difference in cell density in human blood, PBMC (peripheral blood mononuclear cell, PBMC) was directly separated and purified by gradient centrifugation using lymphocyte separation fluid. The cell type was mononuclear cells in blood, mainly including lymphocytes (T/B), monocytes, macrophages, dendritic cells and other minor cell types, of which lymphocytes account for a large part, which can directly in vitro simulate the blood immune environment.
PBMC cells isolated from human blood were implanted into 96-well plates at 2*10^5/ml; compounds in gradients were added, with at least three replicates for each gradient; After the PBMCs were incubated at 37° C., 5% CO2 for 1 hour, LPS was added (the final concentration was 10 ug/ml) to stimulate PBMC to express TNF-α, and incubated for another 18-20 h at 37° C., 5% C02. The 96-well plate was collected. The background control with no stimulant and stimulation control wells were also set, with a total volume of 200 μl. The culture supernatant was collected by centrifugation, and the expression level of TNF-α in the culture supernatant was detected by ELISA.

[9] = intravenous injection, 10 mg/kg
[10] = male, plasma, intravenous injection, 10 mg/kg
[11] = male, plasma, iv, 10 mg/kg, intravenous injection, 10 mg/kg, read-out: AUC0-t
[12] = male, plasma, po, 20 mg/kg, gavage, 20 mg/kg, read-out: AUC0-t
[13] = male, plasma, po, gavage, 20 mg/kg
[14] = male, plasma, intravenous injection, 3 mg/kg
[15] = male, plasma, po, gavage, 10 mg/kg

- AUC0-t ([3]; gavage, 20 mg/kg): 9232.3 ng·h/mL
- AUC0-t [3, 9]: 6761.8 ng·h/mL
- AUC(0-inf) [3, 10]: 6760 ng·h/mL
- MRT [3, 10]: 0.9 h
- half-life [3, 10]: 0.2 h
- Vd [3, 10]: 0.53 L/kg
- AUC0-t [3, 11]: 6760 ng·h/mL
- bioavailability ([3]; male, plasma): 68.3%
- Cmax ([3]; male, plasma, po, 20 mg/kg, gavage): 2380 ng/mL
- AUC0-t [3, 12]: 9230 ng·h/mL
- AUC(0-inf) [3, 13]: 9230 ng·h/mL
- MRT [3, 13]: 2.6 h
- Tmax [3, 13]: 1 h
- half-life [3, 13]: 1 h
Compound: CCOc1cc2c(cc1OC)CCN(C=O)[C@H]2CCc1c[nH]c2cc(C)ccc12 [(S)-C7, (S)-7-ethoxy-6-methoxy-1-(2-(6-methyl-1H-indol-3-yl)ethyl)-3,4-dihydroisoquinoline-2(1H)-formaldehyde]
- Cell survival rate/% ([1]; RAW 264.7, 0.5 μM): 71.3%
- Cell survival rate/% ([1]; RAW 264.7, 5 μM): 93.4%
- Cell survival rate/% ([1]; RAW 264.7, 50 μM): 96.1%
- CC50 at 4 h [2]: > 50000 nM

- AUC0-t ([4]; gavage, 10 mg/kg): 16601 ng·h/mL
- t1/2 ([4]; gavage, 10 mg/kg): 2.92 h
- AUC0-t ([4]; intravenous injection, 3 mg/kg): 9610 ng·h/mL
- AUC(0-inf) [4, 14]: 9800 ng·h/mL
- MRT [4, 14]: 2.37 h
- half-life [4, 14]: 1.96 h
- AUC0-t ([4]; male, plasma, intravenous injection, 3 mg/kg, read-out: AUC0-t): 9610 ng·h/mL
- Vd ([4]; male, plasma, intravenous injection, 3 mg/kg, read-out: Vss): 0.96 L/kg
- bioavailability ([4]; male, plasma, oral, gavage 10 mg/kg vs intravenous 3 mg/kg, dosage standardized, read-out: F (absolute bioavailability)): 52.3%
- Cmax [4, 15]: 4680 ng/mL
- MRT [4, 15]: 3.61 h
- Tmax [4, 15]: 0.5 h
- half-life [4, 15]: 2.92 h
- AUC0-t ([4]; male, plasma, po, gavage, 10 mg/kg, read-out: AUC0-t): 16600 ng·h/mL
- inhibition at 1 µM ([5]; Compound concentration: 1 μM, read-out: PDE4D enzyme activity inhibition rate %): 95%
- IC50 ([5]; PDE4D, unit given as mM, read-out: IC50): 80 nM
- IC50 ([5]; read-out: IC50 value of PDE4 inhibitory activity): < 100 nM
- AUC0-t ([3]; gavage, 20 mg/kg): 491 ng·h/mL
- t1/2 ([3]; gavage, 20 mg/kg): 1.03 h
- AUC0-t [3, 9]: 2640 ng·h/mL
- AUC(0-inf) [3, 10]: 2640 ng·h/mL
- MRT [3, 10]: 0.544 h
- half-life [3, 10]: 0.707 h
- Vd [3, 10]: 2.1 L/kg
- AUC0-t [3, 11]: 2640 ng·h/mL
- bioavailability ([3]; male, plasma): 9.3%
- AUC0-t [3, 12]: 508 ng·h/mL
- AUC(0-inf) [3, 13]: 508 ng·h/mL
- MRT [3, 13]: 2 h
- Tmax [3, 13]: 1.33 h
- half-life [3, 13]: 1.03 h
Compound: CCOc1cc2c(cc1OC)CCN(C=O)[C@H]2CCc1c[nH]c2ccc(OC)cc12 [(S)-C8, (S)-7-ethoxy-6-methoxy-1-(2-(5-methoxy-1H-indol-3-yl)ethyl)-3,4-dihydroisoquinoline-2(1H)-formaldehyde]
- Cell survival rate/% ([1]; RAW 264.7, 0.5 μM): 89.2%
- Cell survival rate/% ([1]; RAW 264.7, 5 μM): 96.1%
- Cell survival rate/% ([1]; RAW 264.7, 50 μM): 93.8%
- CC50 at 4 h [2]: > 50000 nM
- number of leukocyte infiltration ([6]; air sac lavage): reduce
- secretion level of interleukin-6 in lavage [6]: reduce
- secretion level of tumor necrosis factor-α in lavage [6]: reduce
- inflammatory response ([6]; 24 h and 1 h before sensitization): significantly reduce
- inhibition at 0.5 µM ([7]; Mus musculus, RAW264.7, 4 h, RAW 264.7, 0.5 μM, read-out: Tumor necrosis factor-α inhibition rate/%): -6%
- inhibition at 5 µM ([7]; Mus musculus, RAW264.7, 4 h, RAW 264.7, 5 μM, read-out: Tumor necrosis factor-α inhibition rate/%): 60.4%
- inhibition at 50 µM ([7]; Mus musculus, RAW264.7, 4 h, RAW 264.7, 50 μM, read-out: Tumor necrosis factor-α inhibition rate/%): 58.1%
- IC50 ([7]; Mus musculus, RAW264.7, RAW 264.7): 1900 nM
- inhibitory activity on tumor necrosis factor-α compared with the positive compound Apremilast ([7]; RAW 264.7): comparable or stronger
- inhibition at 1 µM ([8]; 1 μM, read-out: Inhibition rate %): 79.7%
- inhibition at 10 µM ([8]; 10 μM, read-out: Inhibition rate %): 86.8%
- IC50 ([8]; read-out: IC50): 26 nM
- IC50 ([8]; read-out: IC50 value): 26 nM
